Read-outs that look alike come from different tables or passages of the source. Numbered stars: 1 amine (or outer) side, 2 acyl side, 3 side chain; on linkers, the order of the positions; unused ones are H or OH. Bridge positions count the residues as written; N and C are the ends. Square brackets hold non-standard residues; d marks the D form. Peptide text beside a SMILES is read from it. Leu(3R-O(AcLeu(3R-OH))) = CC(=O)N[C@H](C(=O)O[C@H](C(C)C)[C@H](N)C(=O)O)[C@H](O)C(C)C; X1 = CO[C@H](C)C(C(=O)[*:2])N(C)[*:1]; dPhLac = O=C(O)[C@H](O)Cc1ccccc1; NMeA = CN[C@@H](C)C(=O)O; NMeDha = C=C(NC)C(=O)O
What was measured:
[1] = tested on: lauric acid-induced peripheral arterial disease model; assay: Lesion progression in rat peripheral arterial disease model induced by lauric acid; format: in vivo
Description: A rat peripheral arterial disease model was produced by using a lauric acid injection method modified from that of Ashida et al. (Thrombosis research, 18, 55, 1980). Six to 24 animals were used in each group of this experiment. After being fasted overnight, each rat was anesthetized with pentobarbital (60 mg/kg i.p.), and the left femoral artery was freed from the surrounding tissue. The femoral artery was cannulated with a polyethylene catheter for i.a. injection of the lauric acid and the test drug. For the i.v. infusion of PGE1, the jugular vein was cannulated with a polyethylene catheter. To induce peripheral arterial vascular injury, 0.33 ml/kg of lauric acid (7.5 mg/ml in distilled water) was injected into the distal side of the arterial. Compound (I) was administered in a single i.a. bolus injection 15 minutes after the lauric acid injection. PGE1 was administered either intravenously for 30 minutes at 1 μg/kg/minutes starting 5 minutes before the lauric acid injection or intra-arterially for 15 minutes at 0.2 μg/kg/minutes starting 5 minutes after the lauric acid injection. Clopidogrel was administered orally either at 3 and 30 mg/kg 4 hours before the lauric acid injection, or at 30 mg/kg 2 hours after the lauric acid injection. It was also administered orally once a day for 3 days after the lauric acid injection. The treated hindlimb was examined macroscopically on days 3 after the lauric acid injection. The progress of the lesion was assessed using the following 5-point graded scoring system: grade 0: normal appearance, grade 1: the affected region was limited to the nails, grade 2: the affected region was limited to the fingers, grade 3: either the fingers are beginning to fall off or lesions appear on the paw, grade 4: either the paw is beginning to fall off or lesions appear on the leg. The condition of each toe was assessed and scored, and the sum of the scores for the five toes was used as the lesion index. If a lesion developed on the sole of the foot, 5 more points were added.

[2] = tested on: dermal blood flow in rat hindlimbs; assay: Decreased dermal blood flow after lauric acid injection (laser Doppler); format: in vivo
Description: Three male SD rats (Japan CLEA) were used in each group of this experiment. A laser Doppler blood flow meter (Laser Doppler Perfusion Imager System, Lisca) was used to evaluate the perfusion in the left (ischemic) and right (non-ischemic) rat hindlimbs. Before and during scanning, animals were placed on a heating plate set at 37° C. to minimize variations in temperature. The femoral artery was cannulated with a polyethylene catheter for i.a. injection of the lauric acid and test drug. For i.v. PGE1 infusion, the jugular vein was cannulated with a polyethylene catheter. Either compound (I) (10 μg/kg) or vehicle was administered in an i.a. bolus injection 15 minutes after the lauric acid injection (0.33 ml/kg, 7.5 mg/ml in distilled water). The laser Doppler images were recorded just before and 10 minutes after the lauric acid injection, as well as 10 minutes after the compound (I) (or vehicle) injection. PGE1 was administered by i.v. infusion at a rate of 1 μg/kg/minutes for 30 minutes beginning 5 minutes before the lauric acid injection. The laser Doppler images were recorded just before and 5 minutes after the start of infusion (just before the lauric acid injection), and then again 10 minutes after the lauric acid injection. Either vehicle (0.5% methylcellulose solution) or clopidogrel (30 mg/kg) was orally administered 4 hours before the experiment. For the oral studies, the laser Doppler images were recorded just before and 10 minutes after the lauric acid injection.

isolated rat aorta = assay: Vasorelaxant effect on vasoconstriction in isolated rat aorta; format: cell-based; conditions: for IC50: Rattus norvegicus
Description: Four male SD rats (Japan CLEA) were used in each group of this experiment. Rats were anesthetized with pentobarbital (60 mg/kg i.p.) and euthanized via exsanguination. The aortas were isolated and all adjacent tissue was removed. Rings of aorta, approximately […] length, were suspended in 10-ml organ baths containing Krebs-Henseleit solution (henceforth referred to as Krebs) of the following composition (mM): NaCl, 112.0; KCl, 4.7; KH2PO4, 1.2; MgSO4, 1.2; CaCl2, 2.5; NaHCO3, 25.0; glucose, 11.0. The Krebs was maintained at 37±1° C. and aerated with a gas mixture of 95% O2:5% CO2 (pH 7.4). Experiments were conducted on aortic tissue of two types. For type 1, the endothelium was removed by gently rubbing the internal surface of the vessel. For type 2, care was taken to maintain the integrity of the endothelium. One ring was placed on a hook that was suspended from a force displacement transducer (SB-1T, Nihon Kohden, Tokyo, Japan), 1.0 g tension was applied, and changes in the force of contraction were isometrically measured. Following a 1-h equilibration period, the rings were pretreated with 1 μM phenylephrine. Compound (I) was dissolved in dimethyl sulfoxide (DMSO) and added to the baths (0.1% DMSO, v/v), after which a cumulative compound (I) (1-100 nM) concentration-response curve was constructed for each type of ring. Contractions were caused in aorta rings with endothelium using three different compounds: 10 μM serotonin (5-HT), 30 nM endothelin-1 (ET-1), and 60 mM KCl. The vasorelaxant effect of compound (I) on the contractions caused by each of these compounds was then compared. Various concentrations of compound (I) were added 30 minutes before treatment with each vasoconstrictor. For 5-HT and KCl, the concentration-inhibition rate was measured for each tissue. For ET-1, each tissue was used to measure the inhibition rate in response to a given concentration of compound (I).

[3] = tested on: ADP-induced platelet aggregation; assay: Ex vivo platelet aggregation inhibition after single administration in the rat femoral artery; conditions: 5 minutes after injection, n=4, mean±SEM
Description: Four male SD rats (Japan CLEA) were used in each group of this experiment. All animals were fasted overnight before the experiment. After being anesthetized with pentobarbital (60 mg/kg i.p.), vehicle (5% ethanol) or compound (I) was injected into either the left femoral artery or the right jugular vein via a catheter. The rats were anesthetized with pentobarbital (60 mg/kg i.p.) before blood sampling. Blood was collected from the vena cava in syringes containing 3.8% sodium citrate at the following time points: 5 minutes after an intra-arterial (i.a.) single bolus injection of compound (I) (1-10 μg/kg). Platelet-rich plasma was obtained by centrifuging the blood at 200×g for 5 minutes at ambient temperature. This residue was further centrifuged at 2,000×g for 10 minutes in order to obtain platelet-poor plasma. Platelet counts were measured with an automatic cell counter (MEK-6258, Nihon Kohden, Tokyo, Japan), and adjusted to 3×10^5/μl with platelet-poor plasma. Platelet aggregation in platelet-rich plasma was measured using an aggregometer (MCM Hema Tracer 212, MC Medical, Tokyo, Japan) to record the increase in light transmission detected through a stirred suspension maintained at 37° C. for 5 minutes. Platelet aggregation was induced in 90 μl of platelet-rich plasma (3×10^5/μl) by adding 10 μl of 50 μM ADP. The inhibitory rate was calculated by dividing the absorbance area for the mixture containing the test sample by the absorbance area obtained for the vehicle-treated group.

[4] = tested on: systemic blood pressure and heart rate; assay: Blood pressure and heart rate after single bolus injection in femoral artery of rats; format: in vivo, rat
Description: Five male SD rats (Japan CLEA) were used in each group of this experiment. The rats, which were fasted overnight, were anesthetized with urethane (1.4 g/kg i.p.) and then secured on an operating table. The left carotid artery was cannulated with polyethylene catheters in order to monitor systemic blood pressure and heart rate. The left femoral artery was likewise cannulated with polyethylene catheters for the injection of compound (I). Systemic blood pressure was measured with a pressure transducer (AP-200T, Nihon Kohden) and heart rate was measured with a tachometer (AT-600G, Nihon Kohden) that was triggered by the arterial pulse wave. Changes in these parameters were continuously monitored by a thermal recorder (WT-685G, Nihon Kohden). Compound (I) was administered in an i.a. bolus injection at the rate of 5 mL/kg. The dosage (10 to 100 μg/kg) was increased every 10 to 20 minutes. The inhibitory rate was calculated by dividing the heart rate and mean blood pressure levels obtained after the compound (I) injection by them obtained after the vehicle injection.

[5] = Pharmacokinetic studies using rats, i.v. bolus injection; format: in vivo; conditions: rat, iv, plasma, after i.v. bolus injection
Gq/11 = conditions: Journal of Biological Chemistry, 279, 47438, 2004; cited from earlier work
[6] = tested on: ADP-induced platelet aggregation; conditions: JP-2003-210190; Journal of Antibiotics, 56, 358, 2003; cited from earlier work

COC(=O)[C@H](c1ccccc1Cl)N1CCc2sccc2C1 [clopidogrel, (+)-(S)-methyl 2-(2-chlorophenyl)-2-(6,7-dihydrothieno[3,2-c]pyridin-5(4H)-yl)acetate]
Inhibition of lesion progression ([1]; oral, administered 4 hours before the lauric acid injection): efficacy of clopidogrel was detected | Inhibition of lesion progression ([1]; oral, administered after the lauric acid injection): no effect was observed | Effect on lauric acid-induced reduction in dermal blood flow ([2]; 30 mg/kg oral 4 hours before the experiment): improved the blood flow only slightly

CCCCC[C@H](O)/C=C/[C@H]1[C@H](O)CC(=O)[C@@H]1CCCCCCC(=O)O [PGE1, prostaglandin E1]
Inhibition of lesion progression ([1]; i.a. infusion at 0.2 μg/kg/minutes for 15 minutes starting 5 minutes after lauric acid): significantly inhibited lesion progression | Inhibition of lesion progression ([1]; i.v. infusion at 1 μg/kg/minutes for 30 minutes starting 5 minutes before lauric acid): significantly inhibited lesion progression | Effect on lauric acid-induced reduction in dermal blood flow ([2]; continuous i.v. infusion 1 μg/kg/minutes, after lauric acid injection): no improvement in the blood flow | Dermal blood flow in both hindlimbs before lauric acid ([2]; i.v. infusion 1 μg/kg/minutes, 5 minutes after the start of the infusion): marked increase in dermal blood flow

C=C1C(=O)N[C@@H](C)C(=O)N(C)[C@@H](C)C(=O)N[C@@H]([C@H](OC(=O)[C@@H](NC(C)=O)[C@H](O)C(C)C)C(C)C)C(=O)N(C)C([C@@H](C)OC)C(=O)O[C@H](C)[C@H](NC(C)=O)C(=O)O[C@H](Cc2ccccc2)C(=O)N1C (stereo partly drawn) [compound (I)] (Ac-T[dPhLac][NMeDha]A[NMeA][Leu(3R-O(AcLeu(3R-OH)))][X1]; ester 1-C)
Effect on KCl-induced contractions (isolated rat aorta; 60 mM KCl, even at a concentration of 1 μM): ineffective | IC50 (isolated rat aorta; contraction induced by 30 nM ET-1, aorta with endothelium, n=4, mean, read-out: IC50 of inhibition of vascular contraction): 18 nM | IC50 (isolated rat aorta; contraction induced by 10 μM 5-HT, aorta with endothelium, n=4, mean±SEM, read-out: IC50 of inhibition of vascular contraction): 8.6 ± 1 nM | IC50 (isolated rat aorta; span over the three vasoconstrictors, read-out: IC50 values for vasoconstrictions induced by phenylephrine, 5-HT and ET-1): 8.6 to 18 nM | IC50 (isolated rat aorta; with endothelium, pre-contracted with 1 μM phenylephrine, n=4, mean±SEM, read-out: IC50 of relaxation of isolated rat aorta): 16 ± 2.3 nM | IC50 (isolated rat aorta; without endothelium, pre-contracted with 1 μM phenylephrine, n=4, mean±SEM, read-out: IC50 of relaxation of isolated rat aorta): 11 nM | Inhibitory rate of ADP-induced platelet aggregation ([3]; 1 μg/kg i.a. bolus): −5.6±5.4% | Inhibitory rate of ADP-induced platelet aggregation ([3]; 3 μg/kg i.a. bolus): 38±5.1% | Inhibitory rate of ADP-induced platelet aggregation ([3]; 10 μg/kg i.a. bolus): 71±7.0% | Dose inhibiting lesion progression with significance ([1]; single i.a. bolus 15 minutes after the lauric acid injection, day 3): ≥ 0.003 mg/kg | Effect on lauric acid-induced reduction in dermal blood flow ([2]; 10 μg/kg i.a. bolus 15 minutes after the lauric acid injection): improved the lauric acid-induced reduction in dermal blood flow somewhat, but did not correct it completely | Relative mean blood pressure reduction ([4]; 30 μg/kg i.a. bolus): 25±5.2% | Relative mean blood pressure reduction ([4]; 100 μg/kg i.a. bolus): 50±2.1% | Hypotensive dose relative to dose with significant preventive effect (Example 4) ([4]; i.a. administration): 10 times | Significant hypotensive dose ([4]; i.a. bolus, Example 6): 0.03 mg/kg | Change of the heart rate ([4]; up to 100 μg/kg i.a.): no significant change | half-life [5]: 3.7 min | Gq/11 inhibition (Gq/11): specific Gq/11 inhibitor | Inhibition of ADP-induced platelet aggregation in human [6]: inhibits ADP-induced platelet aggregation in human
